Test results as given in patent US20130142831A1, “COMPOUNDS FOR INFLAMMATION AND IMMUNE-RELATED USES” (Synta Pharmaceuticals Corp., priority 2004, published 2013).
Where a name gives a salt, the structure may show the parent alone.

Key:
Type in all cases: cell-based
IL-2 production = assay: Inhibition of IL-2 production in PHA-activated Jurkat cells; conditions: Homo sapiens, PHA 2.5 μg/mL, 20 hours
Method in brief: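 Jurkat cells (0.5 million/well, 1% FBS) were preincubated with compound for 10 min, then stimulated with PHA (2.5 μg/mL final) for 20 h at 37 °C. Supernatant IL-2 was measured by ELISA. IC50 is the concentration giving 50% inhibition of maximal stimulated IL-2 relative to a non-stimulated control.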

IL-2 = assay: Cytokine inhibition in PHA-stimulated primary human PBMCs: IL-2; conditions: PBMCs stimulated with PHA; for IC50: Homo sapiens, PBMC, ELISA
Procedure: (§1) Cytokine production was measured using commercially available human ELISA assay kits (from Cell Science, Inc.) following the manufacturers instructions.

IL-4 = assay: Cytokine inhibition in PHA-stimulated primary human PBMCs: IL-4; conditions: PBMCs stimulated with PHA; for IC50: Homo sapiens, PBMC, ELISA
Procedure: as §1

IL-5 = assay: Cytokine inhibition in PHA-stimulated primary human PBMCs: IL-5; conditions: PBMCs stimulated with PHA; for IC50: Homo sapiens, PBMC, ELISA
Procedure: as §1

IL-10 = assay: Cytokine inhibition in PHA-stimulated primary human PBMCs: IL-10; conditions: PBMC, PBMCs stimulated with PHA, ELISA
Procedure: as §1

IL-13 = assay: Cytokine inhibition in PHA-stimulated primary human PBMCs: IL-13; conditions: PBMCs stimulated with PHA; for IC50: Homo sapiens, PBMC, ELISA
Procedure: as §1

GM-CSF = assay: Cytokine inhibition in PHA-stimulated primary human PBMCs: GM-CSF; conditions: PBMCs stimulated with PHA; for IC50: Homo sapiens, PBMC, ELISA
Procedure: as §1

INF-γ = assay: Cytokine inhibition in PHA-stimulated primary human PBMCs: INF-γ; conditions: PBMCs stimulated with PHA; for IC50: Homo sapiens, PBMC, ELISA
Procedure: as §1

TNF-α = assay: Cytokine inhibition in PHA-stimulated primary human PBMCs: TNF-α; conditions: PBMCs stimulated with PHA; for IC50: Homo sapiens, PBMC, ELISA
Procedure: as §1

| SMILES | IC50 (IL-2 production; bins given in nM) [nM] | IC50 (IL-2 production; bins given with μM limit) [nM] | other results |
| --- | --- | --- | --- |
| COc1ccc2c(c1)nc(C(F)(F)F)n2-c1ccc(NC(=O)c2c(F)ccc(F)c2F)cc1 [Compound 1, 2,3,6-Trifluoro-N-[4-(2-trifluoromethyl-5-methoxy-benzoimidazol-1-yl)-phenyl]-benzamide] | < 100 | – | IC50 (IL-2): 29 nM; IC50 (IL-4): 651 nM; IC50 (IL-5): 26 nM; IC50 (IL-10): > 1000 nM; IC50 (IL-13): 73 nM; IC50 (GM-CSF): 788 nM; IC50 (INF-γ): 95 nM; IC50 (TNF-α): 424 nM |
| COc1ccc2c(c1)nc(C(F)(F)F)n2-c1ccc(NC(=O)c2ccc3c(c2)OCO3)cc1 [Compound 75, Benzo[1,3]dioxole-5-carboxylic acid {N-[4-(2-trifluoromethyl-5-methoxy-benzoimidazol-1-yl)-phenyl]} amide] | 100 to 500 | – | Inhibition of IL-2 (in words) (IL-2): potent inhibitors; Inhibition of IL-4 (in words) (IL-4): potent inhibitors; Inhibition of IL-5 (in words) (IL-5): potent inhibitors; Inhibition of IL-13 (in words) (IL-13): potent inhibitors; Inhibition of GM-CSF (in words) (GM-CSF): potent inhibitors; Inhibition of INF-γ (in words) (INF-γ): potent inhibitors; Inhibition of TNF-α (in words) (TNF-α): potent inhibitors |
| CC(C)Oc1ccc2c(c1)nc(C(F)(F)F)n2-c1ccc(NC(=O)c2cccc(F)c2F)cc1 [Compound 112, 2,3-Difluoro-N-[4-(2-trifluoromethyl-5-isopropoxy-benzoimidazol-1-yl)-phenyl]-benzamide] | < 100 | – | – |
| NC(=O)c1ccc2c(c1)nc(C(F)(F)F)n2-c1ccc(NC(=O)c2cccc(F)c2F)cc1 [Compound 113, 2,3-Difluoro-N-[4-(2-trifluoromethyl-5-carbamoyl-benzoimidazol-1-yl)-phenyl]-benzamide] | < 100 | – | – |
| COc1ccc2c(c1)nc(C(F)(F)F)n2-c1ccc(NC(=O)c2cc(Cl)cc(Cl)c2)cc1 [Compound 117, 3,5-Dichloro-N-[4-(2-trifluoromethyl-5-methoxy-benzoimidazol-1-yl)-phenyl]-benzamide] | < 100 | – | – |
| COc1ccc2c(c1)nc(C(F)(F)F)n2-c1ccc(NC(=O)C2CCCN2C(=O)C(F)(F)F)cc1 (stereo not drawn) [Compound 121, 1-(2,2,2-Trifluoroacetyl)-N-[4-(2-trifluoromethyl-5-methoxy-benzoimidazol-1-yl)-phenyl]-pyrrolidine-2-carboxylic acid amide] | – | > 1000 | – |
| CCOC(=O)CCC(=O)Nc1ccc(-n2c(C(F)(F)F)nc3cc(OC)ccc32)cc1 [Compound 125, N-[4-(2-trifluoromethyl-5-methoxy-benzoimidazol-1-yl)-phenyl]-succinamic acid ethyl ester] | – | > 1000 | – |
| COc1ccc2c(c1)nc(C(F)(F)F)n2-c1ccc(NC(=O)c2cc(C(F)(F)F)ccc2C(F)(F)F)cc1 [Compound 127, 2,5-Di-(trifluoromethyl)-N-[4-(2-trifluoromethyl-5-methoxy-benzoimidazol-1-yl)-phenyl]-benzamide] | – | > 1000 | – |
| COc1ccc2c(c1)nc(C(F)(F)F)n2-c1ccc(NC(=O)c2cc(C(F)(F)F)cc(C(F)(F)F)c2)cc1 [Compound 129, 3,5-Di-(trifluoromethyl)-N-[4-(2-trifluoromethyl-5-methoxy-benzoimidazol-1-yl)-phenyl]-benzamide] | – | > 1000 | – |
| COc1ccc(OC)c(C(=O)Nc2ccc(-n3c(C(F)(F)F)nc4cc(OC)ccc43)cc2)c1 [Compound 130, 2,5-Dimethoxy-N-[4-(2-trifluoromethyl-5-methoxy-benzoimidazol-1-yl)-phenyl]-benzamide] | – | > 1000 | – |
| COc1ccc2c(c1)nc(C(F)(F)F)n2-c1ccc(NC(=O)Cc2ccc(OC)c(OC)c2)cc1 [Compound 131, 2-(3,4-dimethoxy-phenyl)-N-[4-(2-trifluoromethyl-5-methoxy-benzoimidazol-1-yl)-phenyl]-acetamide] | – | > 1000 | – |
| CC(=O)Oc1ccc2c(c1)nc(C(F)(F)F)n2-c1ccc(NC(=O)c2cccc(F)c2F)cc1 [Compound 132, 2,3-Difluoro-N-[4-(2-trifluoromethyl-5-acetoxy-benzoimidazol-1-yl)-phenyl]-benzamide] | < 100 | – | – |
| CC(=O)c1ccc2c(c1)nc(C(F)(F)F)n2-c1ccc(NC(=O)c2cccc(F)c2F)cc1 [Compound 133, 2,3-Difluoro-N-[4-(2-trifluoromethyl-5-acetyl-benzoimidazol-1-yl)-phenyl]-benzamide] | 100 to 500 | – | – |
| COc1ccc2c(c1)nc(C(F)(F)F)n2-c1ccc(NCc2c(F)cccc2F)cc1 [Compound 135, 2,6-Difluoro-N-[4-(2-trifluoromethyl-5-methoxy-benzoimidazol-1-yl)-phenyl]-benzylamine, HCl salt] | < 100 | – | IC50 (IL-2): 3 nM; IC50 (IL-4): 101 nM; IC50 (IL-5): 13 nM; IC50 (IL-10): 439 nM; IC50 (IL-13): 25 nM; IC50 (GM-CSF): 99 nM; IC50 (INF-γ): 29 nM; IC50 (TNF-α): 47 nM |

Further lines, with some results ahead:

| IC50 (IL-2 production; bins given in nM) [nM] | IC50 (IL-2 production; bins given with μM limit) [nM] | SMILES | other results |
| --- | --- | --- | --- |
| < 100 | – | COc1ccc2c(c1)nc(C(F)(F)F)n2-c1ccc(NC(=O)c2ccncc2)cc1 [Compound 114, N-[4-(2-trifluoromethyl-5-methoxy-benzoimidazol-1-yl)-phenyl]-isonicotinamide] | – |
| < 100 | – | COc1ccc2c(c1)nc(C(F)(F)F)n2-c1ccc(NC(=O)c2ccccc2I)cc1 [Compound 115, 2-Iodo-N-[4-(2-trifluoromethyl-5-methoxy-benzoimidazol-1-yl)-phenyl]-benzamide] | – |
| < 100 | – | COc1ccc2c(c1)nc(C(F)(F)F)n2-c1ccc(NC(=O)CC(C)C)cc1 [Compound 116, 3-Methyl-N-[4-(2-trifluoromethyl-5-methoxy-benzoimidazol-1-yl)-phenyl]-butyramide] | – |
| < 100 | – | COc1ccc2c(c1)nc(C(F)(F)F)n2-c1ccc(NC(=O)c2cccc(Br)c2)cc1 [Compound 118, 3-Bromo-N-[4-(2-trifluoromethyl-5-methoxy-benzoimidazol-1-yl)-phenyl]-benzamide] | – |
| < 100 | – | COc1ccc2c(c1)nc(C(F)(F)F)n2-c1ccc(NC(=O)c2ccc(Br)cc2)cc1 [Compound 119, 4-Bromo-N-[4-(2-trifluoromethyl-5-methoxy-benzoimidazol-1-yl)-phenyl]-benzamide] | – |
| – | > 1000 | COc1ccc2c(c1)nc(C(F)(F)F)n2-c1ccc(NC(=O)c2ccco2)cc1 [Compound 120, Furan-2-carboxylic acid {N-[4-(2-trifluoromethyl-5-methoxy-benzoimidazol-1-yl)-phenyl]}-amide] | – |
| – | > 1000 | C=CC(=O)Nc1ccc(-n2c(C(F)(F)F)nc3cc(OC)ccc32)cc1 [Compound 122, N-[4-(2-trifluoromethyl-5-methoxy-benzoimidazol-1-yl)-phenyl]-acrylamide] | – |
| – | > 1000 | COc1ccc2c(c1)nc(C(F)(F)F)n2-c1ccc(NC(=O)COCc2ccccc2)cc1 [Compound 123, 2-Benzyloxy-N-[4-(2-trifluoromethyl-5-methoxy-benzoimidazol-1-yl)-phenyl]-acetamide] | – |
| – | > 1000 | COc1ccc2c(c1)nc(C(F)(F)F)n2-c1ccc(NC(=O)CSc2ccccc2)cc1 [Compound 124, 2-Phenylsulfanyl-N-[4-(2-trifluoromethyl-5-methoxy-benzoimidazol-1-yl)-phenyl]-acetamide] | – |
| – | > 1000 | COc1ccc2c(c1)nc(C(F)(F)F)n2-c1ccc(NC(=O)c2ccccc2Cl)cc1 [Compound 126, 2-Chloro-N-[4-(2-trifluoromethyl-5-methoxy-benzoimidazol-1-yl)-phenyl]-benzamide] | – |
| – | > 1000 | COc1ccc2c(c1)nc(C(F)(F)F)n2-c1ccc(NC(=O)c2ccccc2OC)cc1 [Compound 128, 2-Methoxy-N-[4-(2-trifluoromethyl-5-methoxy-benzoimidazol-1-yl)-phenyl]-benzamide] | – |
